Measured values from US11649238B2, “Substituted pyrazolo[1,5-a]pyrimidines as PI4K inhibitors” (GLAXOSMITHKLINE INTELLECTUAL PROPERTY DEVELOPMENT LIMITED, priority 2018, dated 2023).
Several values for one entry are separate records, joined by “and”; a condition that tells them apart may be missing. Equal values may be shown once.

What was measured:
[1] = tested on: human rhinovirus Type A Strain 16 (HRVA16) in HeLa Ohio cells; assay: Cytopathic Effect (CPE) Assay, ATP-depletion in infected HeLa Ohio cells; format: cell-based; settings: HRVA16 at MOI of 1, 33° C. for 2 days, CellTiter-Glo
Description: c) Cytopathic Effect (CPE) Assay Protocol
The in vitro inhibition of PI4 KB activity was determined by analysis of the inhibition of ATP-depletion in HeLa Ohio cells in response to infection with human rhinovirus Type A Strain 16 (HRVA16). ATP levels were determined using CellTiter-GLO reagent from Promega. Compounds that inhibit PI4 KB are also potent inhibitors of human rhinoviruses and are able to protect HeLa Ohio cells from CPE induced by viral infection and replication. Protected cells remain viable following viral infection and therefore have greater ATP levels.
Compounds were dissolved in 100% DMSO to a concentration of 3 mM and subsequent dilutions were prepared in 100% DMSO using a 1:3 serial step dilution. A 0.5 μL stamp from an 10-point titration was transferred to a white 96 well Greiner tissue culture flat bottom plate (655083). A 0.5 μL stamp of 100% DMSO was stamped into columns 11 and 12 of the plate, ensuring a final assay DMSO concentration of 0.33% across the plate and a compound top final assay concentration of 10 μM.
HeLa Ohio cells were cultured at 37° C., 5% CO2 in media (DMEM supplemented with 10% Australian origin foetal bovine serum and 2 mM glutamax). Cells were passaged when confluency reached >80%. For the assay, cells were grown to 80-90% confluency before detachment.
Cells were detached for the assay by washing with PBS and detached using 3 mL TrypLE Express for […] at 37° C. Detached cells were mixed with 7 mL of media and centrifuged at 300 g for 5 min. The cell pellet was resuspended in 50 mL media and counted on a Beckman Coulter ViCell. Cells were diluted to 6.6×10^4 cells/mL and some of the cell volume was removed into a new tube to be used as a column 12 control. HRVA16 stock was added to the remaining cell suspension at the appropriate dilution for the virus stock to achieve an MOI of 1.
150 μL of the cell+virus suspension was added per well to columns 1-11 using a Multidrop Combi. 150 μL of the separate cell suspension was added per well to columns 12 using a multichannel pipette. Assay plates were sealed and incubated at 33° C., 5% CO2 for 2 days. After 2 days, assay plates were removed from the incubator and allowed to equilibrate to room temperature. 60 μL of CellTiter-Glo reagent was added to all wells using a Thermo Scientific Multidrop Combi. Plates were incubated at room temperature for 20 min before reading on an a Perkin Elmer Envision (Settings: Gripper height 2.5, Fixed measurement height (mm) 6.5, Distance between plate and detector 0, Measurement time (s) 0.1, Glow (ct2) correction factor (0%)).
The inhibitory effect of the compounds on the PI4 KB activity was evaluated by the IC50 of the response relative to the high (no virus, column 12) and low (virus+no inhibitor, column 11) controls by fitting to a four parameter dose response equation.

[2] = target: T1, human PI4KIII-beta 13-828 (D316-330) (Homo sapiens, UniProt Q9UBF8); assay: PI4 KB Activity Assay (ADP-GLO Kinase assay); format: biochemical; settings: 1 mM ATP, 60 μM phosphatidylinositol, 3 hours at room temperature; read-out: mean pIC50 (converted)
T1 construct: human PI4KIII-beta 13-828 (D316-330)
In short: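 Human PI4KIII-beta 13-828 (Δ316-330), 1.5 nM, with 1 mM ATP and 60 μM phosphatidylinositol in Hepes pH 7.5/MgCl2 buffer, 11-point titration (top 10 μM, 1% DMSO), 3 h at room temperature. ADP measured by ADP-Glo luminescence; IC50 by four-parameter fit against no-compound and no-enzyme controls.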

[3] = Human Microsomal Metabolic Stability Assay; format: in vitro ADME; settings: 0.5 μM test compound, 0.5 mg/mL microsomal protein, 45 min
Description: d) Human Microsomal Metabolic Stability Assay Protocol Summary Test compound (0.5 μM) was incubated with pooled liver microsomes. Test compound was incubated over the course of a 45 min experiment and the test compound was analysed by LC-MS/MS. Experimental Procedure Pooled human liver microsomes were purchased from a reputable commercial supplier, for example Corning Life Sciences. Microsomes (final protein concentration 0.5 mg/mL), 50 mM phosphate buffer pH7.4 and NADPH (final concentration=1 mM) were pre-incubated at 37° C. prior to the addition of test compound (final substrate concentration=0.5 μM; final DMSO concentration=0.25%) to initiate the reaction. The final incubation volume was 500 μL. A control incubation was included for each compound tested where 50 mM phosphate buffer pH7.4 was added instead of NADPH (minus NADPH). Two control compounds were included with each species. All incubations are performed singularly for each test compound. Each compound was incubated for 45 minutes and samples (50 μL) of incubate were taken at 0, 5, 15, 30 and 45 min. The control (minus NADPH) was sampled at 45 min only. The reactions were stopped by the addition of 100 μL acetonitrile containing internal standard to the sample. The terminated samples were centrifuged at 2,500 rpm for 20 min at 4° C. to precipitate the protein. Quantitative Analysis Following protein precipitation, the samples were analysed using generic LC-MS/MS conditions. Data Analysis From a plot of In peak area ratio (compound peak area/internal standard peak area) against time, the gradient of the line was determined. Subsequently, intrinsic clearance was calculated using the equations below, then converted to mL/min/g: Elimination rate constant (k)=(−gradient) Half life (t½) (min)=0.693+k Intrinsic Clearance (CLint) (μL/min/mg protein)=(V×0.693)+t1/2 where V=Incubation volume μL/mg microsomal protein.

T1 sequence (Q9UBF8 1-801 isoform Q9UBF8-2): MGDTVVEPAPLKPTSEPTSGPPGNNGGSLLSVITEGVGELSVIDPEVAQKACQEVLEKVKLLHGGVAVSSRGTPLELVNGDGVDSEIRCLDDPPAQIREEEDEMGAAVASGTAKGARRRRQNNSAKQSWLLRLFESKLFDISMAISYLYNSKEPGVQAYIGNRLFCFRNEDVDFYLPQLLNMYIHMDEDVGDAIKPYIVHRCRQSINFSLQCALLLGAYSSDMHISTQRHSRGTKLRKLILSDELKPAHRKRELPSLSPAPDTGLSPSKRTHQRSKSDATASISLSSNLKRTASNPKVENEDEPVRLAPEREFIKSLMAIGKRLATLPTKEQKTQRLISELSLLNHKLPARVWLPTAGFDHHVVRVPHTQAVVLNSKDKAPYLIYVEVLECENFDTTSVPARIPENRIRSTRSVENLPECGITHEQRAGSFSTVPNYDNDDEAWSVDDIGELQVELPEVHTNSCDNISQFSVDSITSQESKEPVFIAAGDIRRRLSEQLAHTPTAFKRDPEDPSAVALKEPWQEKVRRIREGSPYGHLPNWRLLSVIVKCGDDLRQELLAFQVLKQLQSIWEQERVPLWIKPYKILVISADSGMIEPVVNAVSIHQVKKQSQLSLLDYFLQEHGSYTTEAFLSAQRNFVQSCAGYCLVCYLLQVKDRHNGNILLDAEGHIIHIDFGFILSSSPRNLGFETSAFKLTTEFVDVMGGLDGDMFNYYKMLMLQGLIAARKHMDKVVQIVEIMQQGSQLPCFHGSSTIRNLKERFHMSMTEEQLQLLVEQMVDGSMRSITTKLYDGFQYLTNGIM

Compound	mean pIC50 [1]	IC50 [2]	intrinsic clearance [3] [mL/min/g]
Cc1ccc(-c2c(C)nn3c(NCc4cccc(-c5nccn5C)c4)cc(C(C)(C)O)nc23)cc1C(=O)N(C)[C@@H](C)CO [Compound 22, (S)—N-(1-hydroxypropan-2-yl)-5-(5-(2-hydroxypropan-2-yl)-2-methyl-7-((3-(1-methyl-1H-imidazol-2-yl)benzyl)amino)pyrazolo[1,5-a]pyrimidin-3-yl)-N,2-dimethylbenzamide]	at least 9.1	3.16 nM and ≤ 3.98 nM	33.7
CCN(CCO)C(=O)c1cc(-c2c(C)nn3c(NCc4cccc(-c5nccn5C)c4)cc(C(C)(C)O)nc23)ccc1OC [Compound 19, N-ethyl-N-(2-hydroxyethyl)-5-(5-(2-hydroxypropan-2-yl)-2-methyl-7-((3-(1-methyl-1H-imidazol-2-yl)benzyl)amino)pyrazolo[1,5-a]pyrimidin-3-yl)-2-methoxybenzamide]	8.9	2.51 nM and ≤ 3.98 nM	11.6
Cc1ccc(-c2c(C)nn3c(NCc4cccc(-c5nccn5C)c4)cc(C(C)(C)O)nc23)cc1C(=O)N(C)CCCO [Compound 17, 5-(5-(2-Hydroxypropan-2-yl)-2-methyl-7-((3-(1-methyl-1H-imidazol-2-yl)benzyl)amino)pyrazolo[1,5-a]pyrimidin-3-yl)-N-(3-hydroxypropyl)-N,2-dimethylbenzamide]	8.9	2.51 nM and ≤ 3.98 nM	28.9
COc1ccc(-c2c(C)nn3c(NCc4cccc(-c5nccn5C)c4)cc(C(C)(C)O)nc23)cc1C(=O)N(C)C1CCOCC1 [Compound 21, 5-(5-(2-Hydroxypropan-2-yl)-2-methyl-7-((3-(1-methyl-1H-imidazol-2-yl)benzyl)amino)pyrazolo[1,5-a]pyrimidin-3-yl)-2-methoxy-N-methyl-N-(tetrahydro-2H-pyran-4-yl)benzamide]	8.8	6.31 nM	34.0
